The values below come from ChEMBL document CHEMBL1201862, “PubChem BioAssay data set” (2004).

Activity calls are given as the source filed them.

Common to all, as to assay type: functional
The target in assay [1] is T1, Apoptotic protease-activating factor 1 (Homo sapiens, UniProt O14727).
T1 sequence (O14727 whole entry): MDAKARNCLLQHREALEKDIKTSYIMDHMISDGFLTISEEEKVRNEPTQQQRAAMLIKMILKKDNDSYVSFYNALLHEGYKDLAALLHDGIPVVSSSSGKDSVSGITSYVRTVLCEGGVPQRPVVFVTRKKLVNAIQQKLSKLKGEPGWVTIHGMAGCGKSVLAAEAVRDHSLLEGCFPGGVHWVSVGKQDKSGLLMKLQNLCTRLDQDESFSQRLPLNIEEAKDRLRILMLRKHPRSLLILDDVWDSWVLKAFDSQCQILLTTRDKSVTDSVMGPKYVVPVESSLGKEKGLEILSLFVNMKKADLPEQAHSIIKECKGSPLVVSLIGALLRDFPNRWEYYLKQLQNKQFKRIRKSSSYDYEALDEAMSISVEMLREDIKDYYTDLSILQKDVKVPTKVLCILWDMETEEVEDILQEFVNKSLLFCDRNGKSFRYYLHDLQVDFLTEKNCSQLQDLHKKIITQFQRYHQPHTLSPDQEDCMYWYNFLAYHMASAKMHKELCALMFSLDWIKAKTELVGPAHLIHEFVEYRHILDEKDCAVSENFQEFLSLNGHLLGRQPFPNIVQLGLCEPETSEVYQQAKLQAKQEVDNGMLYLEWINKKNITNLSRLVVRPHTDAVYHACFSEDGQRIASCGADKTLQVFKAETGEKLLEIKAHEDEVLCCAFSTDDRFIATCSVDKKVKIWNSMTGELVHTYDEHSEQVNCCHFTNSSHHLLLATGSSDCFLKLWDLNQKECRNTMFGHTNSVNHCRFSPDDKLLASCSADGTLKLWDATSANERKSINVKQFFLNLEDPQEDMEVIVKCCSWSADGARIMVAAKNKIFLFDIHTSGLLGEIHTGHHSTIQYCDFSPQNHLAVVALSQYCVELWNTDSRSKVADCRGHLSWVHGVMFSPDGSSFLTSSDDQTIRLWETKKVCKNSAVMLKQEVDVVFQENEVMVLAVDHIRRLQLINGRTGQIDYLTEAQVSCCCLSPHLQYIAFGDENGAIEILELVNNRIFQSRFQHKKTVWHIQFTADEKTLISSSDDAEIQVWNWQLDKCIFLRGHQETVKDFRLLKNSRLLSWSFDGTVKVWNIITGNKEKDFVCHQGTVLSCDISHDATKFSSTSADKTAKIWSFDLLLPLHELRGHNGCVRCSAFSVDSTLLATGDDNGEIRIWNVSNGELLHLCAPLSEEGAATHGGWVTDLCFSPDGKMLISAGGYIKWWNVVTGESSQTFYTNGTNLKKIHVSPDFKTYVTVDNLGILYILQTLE

Assay [2] deals with T2, Sentrin-specific protease 8 (Homo sapiens, UniProt Q96LD8).
T2 sequence (Q96LD8 whole entry): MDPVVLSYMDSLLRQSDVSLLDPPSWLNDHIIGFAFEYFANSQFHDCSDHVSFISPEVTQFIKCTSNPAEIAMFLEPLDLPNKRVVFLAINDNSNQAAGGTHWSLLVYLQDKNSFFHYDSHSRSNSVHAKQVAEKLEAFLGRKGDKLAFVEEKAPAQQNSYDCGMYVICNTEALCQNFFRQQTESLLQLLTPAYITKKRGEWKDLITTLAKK

Assay [3] has as its target T2, Sentrin-specific protease 8. This is another data set of the same source.
A short description of assay [4]: Luminescence Cell-Based Dose Confirmation HTS to Identify Activators of 5'UTR Stem-Loop Driven Alpha-Synuclein mRNA Translation in H4 Neuroglioblastoma Cells. [Related pubchem assays: 1829 (Project Summary), 1814 (Primary HTS)].
Assay [5] has as its target T3, Caspase-3 (Homo sapiens, UniProt P42574).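 Further: Dose-response selectivity test against caspase-3 for candidate inhibitors of sentrin-specific proteases (SENPs).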
T3 sequence (P42574 whole entry): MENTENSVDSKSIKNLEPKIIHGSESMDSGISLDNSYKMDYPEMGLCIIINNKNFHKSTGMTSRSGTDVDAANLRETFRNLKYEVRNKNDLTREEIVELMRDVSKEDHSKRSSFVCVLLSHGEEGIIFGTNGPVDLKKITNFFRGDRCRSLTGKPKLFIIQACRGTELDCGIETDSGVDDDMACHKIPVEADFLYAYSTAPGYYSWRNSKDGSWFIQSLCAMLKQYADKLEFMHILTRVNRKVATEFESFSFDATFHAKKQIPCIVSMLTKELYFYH

For assay [6], the target named is Protein kinase C delta type (Homo sapiens, UniProt Q05655).
Assay [7] has as its target RAC-gamma serine/threonine-protein kinase (Homo sapiens, UniProt Q9Y243).
Assay [8] deals with Ribosomal protein S6 kinase beta-1 (Homo sapiens, UniProt P23443).
For assay [9], the target named is MAP kinase-activated protein kinase 2 (Homo sapiens, UniProt P49137).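 Further: measured as one member of a kinome-wide kinase panel.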
In assay [10] the target is Serine/threonine-protein kinase PLK4 (Homo sapiens, UniProt O00444).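 Further: PLK4 measured as one member of a kinome-wide kinase profiling panel.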
Assay [11] concerns the target Protein kinase C iota type (Homo sapiens, UniProt P41743).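 Further: measured within a kinome-wide kinase panel, PRKCI as panel member.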
The target in assay [12] is Tyrosine-protein kinase Lck (Homo sapiens, UniProt P06239).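 Further: lck was assayed as one member of a kinase panel.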
Assay [13] deals with Calcium/calmodulin-dependent protein kinase type II subunit beta (Homo sapiens, UniProt Q13554).
Assay [14] addresses High affinity nerve growth factor receptor (Homo sapiens, UniProt P04629).

Chain of RAC-gamma serine/threonine-protein kinase (Q9Y243 whole entry): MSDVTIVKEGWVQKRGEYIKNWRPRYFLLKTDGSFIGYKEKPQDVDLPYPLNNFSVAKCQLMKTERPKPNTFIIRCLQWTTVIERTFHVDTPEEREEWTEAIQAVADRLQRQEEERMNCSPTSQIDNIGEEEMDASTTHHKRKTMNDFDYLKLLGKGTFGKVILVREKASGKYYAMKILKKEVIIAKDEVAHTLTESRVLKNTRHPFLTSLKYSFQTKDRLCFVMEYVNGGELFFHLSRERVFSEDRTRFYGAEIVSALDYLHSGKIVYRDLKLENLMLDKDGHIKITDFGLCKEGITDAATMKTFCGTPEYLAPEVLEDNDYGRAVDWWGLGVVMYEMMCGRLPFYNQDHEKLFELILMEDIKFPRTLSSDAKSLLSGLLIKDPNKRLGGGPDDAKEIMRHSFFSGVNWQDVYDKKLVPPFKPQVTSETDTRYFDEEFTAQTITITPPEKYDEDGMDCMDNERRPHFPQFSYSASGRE
Chain of Tyrosine-protein kinase Lck (P06239 whole entry): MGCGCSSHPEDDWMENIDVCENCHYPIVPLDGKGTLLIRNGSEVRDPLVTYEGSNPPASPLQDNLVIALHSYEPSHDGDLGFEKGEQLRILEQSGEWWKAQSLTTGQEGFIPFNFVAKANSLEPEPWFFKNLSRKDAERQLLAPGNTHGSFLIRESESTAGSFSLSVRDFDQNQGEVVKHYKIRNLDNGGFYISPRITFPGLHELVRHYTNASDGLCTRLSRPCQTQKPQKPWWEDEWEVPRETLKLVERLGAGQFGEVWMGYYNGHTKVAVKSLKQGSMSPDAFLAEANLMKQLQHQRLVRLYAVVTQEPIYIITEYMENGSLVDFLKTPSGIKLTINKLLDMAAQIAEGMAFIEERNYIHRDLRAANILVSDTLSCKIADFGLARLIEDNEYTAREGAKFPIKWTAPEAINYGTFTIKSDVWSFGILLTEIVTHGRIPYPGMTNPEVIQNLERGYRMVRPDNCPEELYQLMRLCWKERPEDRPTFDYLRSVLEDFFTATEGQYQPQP
Chain of Serine/threonine-protein kinase PLK4 (O00444 whole entry): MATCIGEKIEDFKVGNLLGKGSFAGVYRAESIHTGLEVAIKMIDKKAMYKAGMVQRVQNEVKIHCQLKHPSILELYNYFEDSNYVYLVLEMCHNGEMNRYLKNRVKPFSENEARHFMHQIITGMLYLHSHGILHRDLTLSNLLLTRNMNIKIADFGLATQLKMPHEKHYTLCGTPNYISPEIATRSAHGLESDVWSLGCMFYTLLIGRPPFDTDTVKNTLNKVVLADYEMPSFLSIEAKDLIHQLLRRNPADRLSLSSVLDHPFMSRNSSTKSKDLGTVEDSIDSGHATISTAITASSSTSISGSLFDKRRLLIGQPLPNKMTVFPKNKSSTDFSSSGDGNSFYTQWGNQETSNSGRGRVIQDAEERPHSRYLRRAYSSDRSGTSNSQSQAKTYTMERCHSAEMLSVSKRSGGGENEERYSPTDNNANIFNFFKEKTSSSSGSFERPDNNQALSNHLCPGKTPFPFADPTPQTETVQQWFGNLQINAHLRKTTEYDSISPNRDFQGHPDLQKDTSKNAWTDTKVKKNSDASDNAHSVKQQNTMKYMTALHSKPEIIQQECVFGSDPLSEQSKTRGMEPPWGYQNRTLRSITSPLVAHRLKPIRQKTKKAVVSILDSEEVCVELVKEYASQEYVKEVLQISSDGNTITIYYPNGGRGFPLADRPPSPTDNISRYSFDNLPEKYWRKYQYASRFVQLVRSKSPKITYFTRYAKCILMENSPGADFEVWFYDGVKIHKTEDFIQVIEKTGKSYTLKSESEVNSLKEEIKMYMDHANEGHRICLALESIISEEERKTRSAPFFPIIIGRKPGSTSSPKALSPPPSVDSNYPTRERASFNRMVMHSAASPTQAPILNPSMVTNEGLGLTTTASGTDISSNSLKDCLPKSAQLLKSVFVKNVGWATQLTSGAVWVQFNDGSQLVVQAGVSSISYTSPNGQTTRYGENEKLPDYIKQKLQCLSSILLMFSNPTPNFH
Chain of Ribosomal protein S6 kinase beta-1 (P23443 whole entry): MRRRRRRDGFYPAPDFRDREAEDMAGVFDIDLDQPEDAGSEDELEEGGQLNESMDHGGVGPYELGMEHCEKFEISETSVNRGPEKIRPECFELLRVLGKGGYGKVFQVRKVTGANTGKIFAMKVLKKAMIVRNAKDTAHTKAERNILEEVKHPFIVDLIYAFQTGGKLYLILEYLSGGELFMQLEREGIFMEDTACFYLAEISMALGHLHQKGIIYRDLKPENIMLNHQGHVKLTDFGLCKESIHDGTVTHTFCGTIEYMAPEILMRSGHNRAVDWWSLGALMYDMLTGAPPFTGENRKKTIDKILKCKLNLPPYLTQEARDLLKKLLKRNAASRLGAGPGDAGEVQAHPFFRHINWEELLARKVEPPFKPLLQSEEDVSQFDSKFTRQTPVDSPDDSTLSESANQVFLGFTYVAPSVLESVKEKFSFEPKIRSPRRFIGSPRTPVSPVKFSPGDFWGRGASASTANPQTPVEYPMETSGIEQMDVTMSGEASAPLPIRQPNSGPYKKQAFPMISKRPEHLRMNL
Chain of Calcium/calmodulin-dependent protein kinase type II subunit beta (Q13554 whole entry): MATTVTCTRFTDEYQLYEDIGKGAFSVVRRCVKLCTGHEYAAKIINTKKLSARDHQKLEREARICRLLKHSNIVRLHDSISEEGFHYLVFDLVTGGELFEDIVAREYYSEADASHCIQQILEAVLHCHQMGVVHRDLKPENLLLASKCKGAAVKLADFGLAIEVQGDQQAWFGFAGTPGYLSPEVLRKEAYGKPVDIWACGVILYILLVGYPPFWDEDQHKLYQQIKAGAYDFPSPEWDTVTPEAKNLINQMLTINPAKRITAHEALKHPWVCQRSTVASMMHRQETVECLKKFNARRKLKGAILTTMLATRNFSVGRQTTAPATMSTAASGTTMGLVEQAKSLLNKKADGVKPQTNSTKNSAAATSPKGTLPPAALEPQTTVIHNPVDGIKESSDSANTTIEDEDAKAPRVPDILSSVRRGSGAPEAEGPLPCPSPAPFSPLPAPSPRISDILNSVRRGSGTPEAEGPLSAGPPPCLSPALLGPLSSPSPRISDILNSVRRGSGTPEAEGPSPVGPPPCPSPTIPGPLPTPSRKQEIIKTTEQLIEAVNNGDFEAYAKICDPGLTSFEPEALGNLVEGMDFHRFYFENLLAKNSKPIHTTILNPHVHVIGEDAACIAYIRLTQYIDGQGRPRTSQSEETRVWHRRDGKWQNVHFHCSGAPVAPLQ
Chain of Protein kinase C delta type (Q05655 whole entry): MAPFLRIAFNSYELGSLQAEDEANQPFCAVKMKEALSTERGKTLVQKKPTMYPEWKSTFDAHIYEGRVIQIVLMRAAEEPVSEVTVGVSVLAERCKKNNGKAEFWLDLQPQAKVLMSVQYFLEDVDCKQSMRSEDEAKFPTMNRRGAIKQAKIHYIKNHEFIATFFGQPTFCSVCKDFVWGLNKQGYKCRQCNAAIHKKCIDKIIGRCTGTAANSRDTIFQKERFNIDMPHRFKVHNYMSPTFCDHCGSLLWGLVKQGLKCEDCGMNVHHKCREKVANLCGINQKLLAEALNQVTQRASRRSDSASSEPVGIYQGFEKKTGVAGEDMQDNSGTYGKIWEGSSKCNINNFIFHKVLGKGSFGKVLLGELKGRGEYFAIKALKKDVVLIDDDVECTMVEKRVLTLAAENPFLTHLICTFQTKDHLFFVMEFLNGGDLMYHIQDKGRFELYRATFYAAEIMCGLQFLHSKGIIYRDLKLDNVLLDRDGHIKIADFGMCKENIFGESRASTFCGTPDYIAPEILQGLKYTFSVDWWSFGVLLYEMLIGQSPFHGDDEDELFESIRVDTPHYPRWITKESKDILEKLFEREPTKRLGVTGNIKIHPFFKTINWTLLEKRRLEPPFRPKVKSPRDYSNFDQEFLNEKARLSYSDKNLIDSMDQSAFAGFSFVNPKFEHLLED
Chain of Protein kinase C iota type (P41743 whole entry): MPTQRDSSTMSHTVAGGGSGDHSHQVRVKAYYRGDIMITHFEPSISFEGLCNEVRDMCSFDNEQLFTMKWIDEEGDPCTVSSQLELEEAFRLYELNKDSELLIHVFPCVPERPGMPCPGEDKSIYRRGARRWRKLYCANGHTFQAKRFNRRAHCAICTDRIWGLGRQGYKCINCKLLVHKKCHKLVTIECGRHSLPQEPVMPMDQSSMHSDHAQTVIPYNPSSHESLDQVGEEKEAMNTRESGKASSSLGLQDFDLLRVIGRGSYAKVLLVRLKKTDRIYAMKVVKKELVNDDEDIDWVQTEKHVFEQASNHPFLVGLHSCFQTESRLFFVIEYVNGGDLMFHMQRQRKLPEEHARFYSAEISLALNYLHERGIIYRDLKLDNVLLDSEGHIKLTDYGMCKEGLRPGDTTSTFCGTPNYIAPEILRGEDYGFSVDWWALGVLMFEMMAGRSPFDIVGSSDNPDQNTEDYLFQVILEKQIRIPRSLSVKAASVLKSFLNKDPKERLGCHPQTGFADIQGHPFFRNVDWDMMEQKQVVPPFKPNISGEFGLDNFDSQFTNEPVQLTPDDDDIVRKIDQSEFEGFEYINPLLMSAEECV
Chain of MAP kinase-activated protein kinase 2 (P49137 whole entry): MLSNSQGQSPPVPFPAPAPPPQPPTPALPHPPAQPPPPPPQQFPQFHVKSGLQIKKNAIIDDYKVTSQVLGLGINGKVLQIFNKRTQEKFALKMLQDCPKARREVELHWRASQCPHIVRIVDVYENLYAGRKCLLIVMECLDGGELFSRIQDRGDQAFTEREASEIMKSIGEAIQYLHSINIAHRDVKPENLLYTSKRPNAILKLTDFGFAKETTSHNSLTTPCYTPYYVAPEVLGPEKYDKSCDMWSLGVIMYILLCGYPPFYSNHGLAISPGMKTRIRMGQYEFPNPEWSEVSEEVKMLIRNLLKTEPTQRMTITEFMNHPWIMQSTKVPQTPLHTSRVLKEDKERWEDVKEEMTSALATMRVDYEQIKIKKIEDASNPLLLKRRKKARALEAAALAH

As for `O=C1C2=[N+]([O-])[C@H]3CCCC[C@H]3[N+]([O-])=C2c2ccccc21`, the IC50 was 18.1 µM (active) in assay [1], 5.98 µM (active) in assay [2], 21.5 µM (active) in [3] and 15.4 µM (active) in assay [5]. Further, the EC50 in assay [4] is > 120 µM (not active).

`NC1CCC(Nc2nccc(-c3c[nH]c4ncccc34)n2)CC1` (centres undefined): the Ki in assay [6] was 0.00316 µM (active); in assay [7], 0.631 µM (active); in assay [8], 0.501 µM (active); in assay [9], 0.794 µM (active); in [10] it was > 3.98 µM (inactive); in [11], 0.0316 µM (active).

As for `OCc1cc(-c2ccc3[nH]ncc3c2)on1`, the inhibitory constant (Ki) in assay [12] was 100 µM (active).

As for `COC(C(=O)N1Cc2[nH]nc(NC(=O)c3ccc(N4CCN(C)CC4)cc3)c2C1)c1ccccc1` (centres undefined), in [13], the Ki was 7.94 µM (active).

Consider `CC(C)(O)c1cn(-c2ccc3[nH]ncc3c2)nn1`, for which the Ki in assay [14] was 79.4 µM (active).
